According to PubChem BioAssay AID330 (DTP/NCI, 2004):
Where “and” joins values, the source holds several entries; their conditions need not be identical. Equal values may be shown once. Toxic doses and inconclusive results are not listed. How the source made its calls: active means survival T/C of 150% or more; inactive means T/C below 125% in these data.

System: P388 leukemia ip, CD2F1 mice, survival T/C
Assay: NCI In Vivo Anticancer Drug Screen. Data for tumor model P388 Leukemia (intraperitoneal) in CD2F1 (CDF1) mice
Conditions: endpoint: median survival time, higher = longer survival
Procedure, shortened: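 Mice carrying the transplanted tumor received test compound or vehicle. Survival was recorded in each group, and the value is the treated-group measurement divided by that of the vehicle-treated control group.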

[1] = dose: 60.0 mg/kg/injection, schedule: Q01DX005 (ip), vehicle: Klucel (hydroxypropylcellulose) (HPC)
[2] = dose: 120.0 mg/kg/injection, schedule: Q01DX005 (ip), vehicle: Klucel (hydroxypropylcellulose) (HPC)
[3] = dose: 240.0 mg/kg/injection, schedule: Q01DX005 (ip), vehicle: Klucel (hydroxypropylcellulose) (HPC)
[4] = dose: 60.0 mg/kg/injection, schedule: Q01DX005 (ip), vehicle: saline with Tween-80
[5] = dose: 120.0 mg/kg/injection, schedule: Q01DX005 (ip), vehicle: saline with Tween-80
[6] = dose: 240.0 mg/kg/injection, schedule: Q01DX005 (ip), vehicle: saline with Tween-80
[7] = dose: 15.0 mg/kg/injection, schedule: Q01DX005 (ip), vehicle: Klucel (hydroxypropylcellulose) (HPC)
[8] = dose: 100.0 mg/kg/injection, schedule: Q01DX009 (ip), vehicle: saline with Tween-80
[9] = dose: 200.0 mg/kg/injection, schedule: Q01DX009 (ip), vehicle: saline with Tween-80
[10] = dose: 400.0 mg/kg/injection, schedule: Q01DX009 (ip), vehicle: saline with Tween-80
[11] = dose: 50.0 mg/kg/injection, schedule: Q01DX009 (ip), vehicle: Klucel (hydroxypropylcellulose) (HPC)
[12] = dose: 100.0 mg/kg/injection, schedule: Q01DX009 (ip), vehicle: Klucel (hydroxypropylcellulose) (HPC)
[13] = dose: 200.0 mg/kg/injection, schedule: Q01DX009 (ip), vehicle: Klucel (hydroxypropylcellulose) (HPC)
[14] = dose: 400.0 mg/kg/injection, schedule: Q04DX003 (ip), vehicle: saline with Tween-80
[15] = dose: 100.0 mg/kg/injection, schedule: Q04DX003 (ip), vehicle: saline
[16] = dose: 200.0 mg/kg/injection, schedule: Q04DX003 (ip), vehicle: saline
[17] = dose: 50.0 mg/kg/injection, schedule: Q01DX005 (ip), vehicle: Klucel (hydroxypropylcellulose) (HPC)
[18] = dose: 100.0 mg/kg/injection, schedule: Q01DX005 (ip), vehicle: Klucel (hydroxypropylcellulose) (HPC)
[19] = dose: 200.0 mg/kg/injection, schedule: Q01DX005 (ip), vehicle: Klucel (hydroxypropylcellulose) (HPC)
[20] = dose: 50.0 mg/kg/injection, schedule: Q01DX005 (ip), vehicle: saline with Tween-80
[21] = dose: 100.0 mg/kg/injection, schedule: Q01DX005 (ip), vehicle: saline with Tween-80
[22] = dose: 200.0 mg/kg/injection, schedule: Q01DX005 (ip), vehicle: saline with Tween-80

Measured: T/C

O=C1CCSC(=S)N1c1ccc(F)cc1
inactive: dose: 50.0 mg/kg/injection, schedule: Q01DX009 (ip), vehicle: suspension in saline 99 % of control | dose: 100.0 mg/kg/injection, schedule: Q01DX009 (ip), vehicle: suspension in saline 106 % of control | dose: 200.0 mg/kg/injection, schedule: Q01DX009 (ip), vehicle: suspension in saline 90 % of control

C[C@@H]1C[C@H](C)OC(CO)O1 (some centres not stated) (tested in a mixture with another compound)
inactive: dose: 60.0 mg/kg/injection, schedule: Q01DX005 (ip), vehicle: saline 100 % of control | dose: 120.0 mg/kg/injection, schedule: Q01DX005 (ip), vehicle: saline 99 % of control | dose: 240.0 mg/kg/injection, schedule: Q01DX005 (ip), vehicle: saline 97 % of control

CC(O)(C#Cc1ccccc1)c1nc2ccccc2s1 (configuration not stated)
inactive: [1] 101 % of control | [2] 101 % of control | [3] 100 % of control

N#Cc1nc2c(nc1C#N)-c1ccccc1/C2=C1/C(=O)Cc2ccccc21
inactive: [4] 98 % of control | [5] 99 % of control | [6] 102 % of control

O=c1c2ccccc2nc2sc3nc4ccccc4c(=O)n3n12
inactive: [7] 94 % of control | dose: 30.0 mg/kg/injection, schedule: Q01DX005 (ip), vehicle: Klucel (hydroxypropylcellulose) (HPC) 91 % of control | [1] 88 % of control and 92 % of control | [2] 89 % of control | [3] 96 % of control

CCSCCC1(CCC(C)C)C(=O)NC(=Nc2ccccc2)NC1=O (configuration not stated)
inactive: dose: 50.0 mg/kg/injection, schedule: Q01DX009 (ip), vehicle: saline with Tween-80 99 % of control | [8] 95 % of control | [9] 99 % of control | [10] 95 % of control

Cc1nn(-c2nc(-c3ccc(Br)cc3)cs2)c(C)c1C
inactive: [11] 105 % of control | [12] 106 % of control | [13] 105 % of control

CCCCCCCCCC(C)(O)C#CC(C)(O)CCCCCCCCC (configuration not stated)
inactive: [8] 87 % of control | [9] 95 % of control | [14] 86 % of control

CCOC(=O)/C=C/C(F)(F)C(F)(F)C(F)(F)C(F)(F)C(F)(F)C(F)(F)C(F)(F)F
inactive: [15] 100 % of control | [16] 100 % of control | dose: 400.0 mg/kg/injection, schedule: Q04DX003 (ip), vehicle: saline 100 % of control

CN(CCO)c1ccc([N+](=O)[O-])c2nonc12
inactive: dose: 25.0 mg/kg/injection, schedule: Q04DX002 (ip), vehicle: saline 99 % of control and 103 % of control | dose: 50.0 mg/kg/injection, schedule: Q04DX002 (ip), vehicle: saline 99 % of control (2×) and 115 % of control | dose: 100.0 mg/kg/injection, schedule: Q04DX002 (ip), vehicle: saline 100 % of control and 101 % of control

O=[N+]([O-])c1ccc(C(O)C(Br)[N+](=O)[O-])cc1 (configuration not stated)
inactive: [8] 104 % of control | [9] 104 % of control | [10] 95 % of control

O=C(O)c1ccc(C(=O)c2ccc([N+](=O)[O-])cc2)cc1
inactive: [4] 103 % of control | [5] 104 % of control | [6] 103 % of control

O=C1NS(=O)(=O)Oc2ccccc2O1
inactive: [17] 107 % of control | [18] 100 % of control | [19] 95 % of control

COc1ccc2c3c([nH]c2c1)C1CC2C(CC(O)C(OC)C2C(=O)O)CN1CC3 (configuration not stated)
inactive: [1] 100 % of control | [2] 100 % of control | [3] 106 % of control

CC(C)C(=O)OC1(C(C)c2ccccc2)C(=O)NC(=O)NC1=O (configuration not stated)
inactive: dose: 7.5 mg/kg/injection, schedule: Q01DX005 (ip), vehicle: Klucel (hydroxypropylcellulose) (HPC) 98 % of control | [7] 102 % of control

CC(=O)c1ccc([N+](=O)[O-])cc1Cl
inactive: dose: 100.0 mg/kg/injection, schedule: Q04DX002 (ip), vehicle: saline with Tween-80 106 % of control | dose: 200.0 mg/kg/injection, schedule: Q04DX002 (ip), vehicle: saline with Tween-80 106 % of control | dose: 400.0 mg/kg/injection, schedule: Q04DX002 (ip), vehicle: saline with Tween-80 103 % of control

CCNC(=O)C#CC(=O)NCC
inactive: [11] 92 % of control | [12] 92 % of control | [13] 95 % of control

O=c1[nH]nc(-c2ccc(Br)cc2)s1
inactive: dose: 100.0 mg/kg/injection, schedule: Q04DX003 (ip), vehicle: saline with Tween-80 98 % of control | dose: 200.0 mg/kg/injection, schedule: Q04DX003 (ip), vehicle: saline with Tween-80 100 % of control | [14] 99 % of control

O=Nc1c(O)c2ccccc2c2ccccc12
inactive: dose: 25.0 mg/kg/injection, schedule: Q01DX005 (ip), vehicle: Klucel (hydroxypropylcellulose) (HPC) 102 % of control | [17] 102 % of control | [18] 112 % of control

N=C(N)c1ccc2oc(/C=C/c3ccc(-c4cc5cc(C(=N)N)ccc5o4)cc3)cc2c1
inactive: [17] 98 % of control | [18] 104 % of control | [19] 104 % of control

C[N+](C)(C)[C@H]1CCCC[C@@H]1O
inactive: dose: 50.0 mg/kg/injection, schedule: Q01DX005 (ip), vehicle: distilled water + alcohol 104 % of control | dose: 100.0 mg/kg/injection, schedule: Q01DX005 (ip), vehicle: distilled water + alcohol 99 % of control | dose: 200.0 mg/kg/injection, schedule: Q01DX005 (ip), vehicle: distilled water + alcohol 105 % of control

CCN(CC)CCOc1ccc(C2=C(c3ccc(OC)cc3)Cc3cc(OC)ccc32)cc1
inactive: dose: 6.25 mg/kg/injection, schedule: Q01DX005 (ip), vehicle: saline with Tween-80 101 % of control | dose: 12.5 mg/kg/injection, schedule: Q01DX005 (ip), vehicle: saline with Tween-80 101 % of control | dose: 25.0 mg/kg/injection, schedule: Q01DX005 (ip), vehicle: saline with Tween-80 105 % of control | [20] 106 % of control | [21] 106 % of control | [22] 102 % of control

Cc1no[n+]([O-])c1C(=O)NN
inactive: [1] 103 % of control | [2] 94 % of control | [3] 100 % of control

CC(=O)C(/C=N/C(N)=O)=C(/C)O
inactive: dose: 50.0 mg/kg/injection, schedule: Q04DX003 (ip), vehicle: saline 100 % of control | [15] 100 % of control | [16] 110 % of control

CSc1ncnc2sc(NN)nc12
inactive: dose: 100.0 mg/kg/injection, schedule: Q01DX001 (ip), vehicle: distilled water + alcohol 94 % of control | dose: 200.0 mg/kg/injection, schedule: Q01DX001 (ip), vehicle: distilled water + alcohol 94 % of control | dose: 400.0 mg/kg/injection, schedule: Q01DX001 (ip), vehicle: distilled water + alcohol 102 % of control

CC(=O)OC1C=C2C(=O)OCC2(O)C2(C)CCCC(C)(C)C12 (configuration not stated)
inactive: dose: 3.12 mg/kg/injection, schedule: Q01DX009 (ip), vehicle: other 102 % of control | dose: 6.25 mg/kg/injection, schedule: Q01DX009 (ip), vehicle: other 100 % of control | dose: 12.5 mg/kg/injection, schedule: Q01DX009 (ip), vehicle: other 102 % of control

CC1=C(C(=O)CC(=O)C(=O)Nc2ccc(C)cc2C)Sc2ccccc2N1
inactive: [4] 104 % of control | [5] 101 % of control | [6] 94 % of control

CC(C)(C)n1nnnc1Cl
inactive: [11] 107 % of control | [12] 102 % of control | [13] 107 % of control

Cc1ccc(S(=O)(=O)N=Nc2c(O)c3ccccc3c3ccccc23)cc1
inactive: [20] 103 % of control | [21] 103 % of control | [22] 100 % of control
